PubChem BioAssay (NCI)
“And” between values parts separate entries of the source, which are not always exact repeats. Equal values may be shown once.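 1) Cells in 96-well plates. 2) Compound, 48 h, 5 concentrations. 3) Linear interpolation between surrounding doses. 4) Unreached endpoint = highest concentration. GI50: concentration for 50% inhibition of growth. TGI marks complete inhibition of growth.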

Experiments:
Test in all cases: NCI tumour cell line growth inhibition, 48 h
NCI-H522 lung = system: NCI-H522 lung
ACHN renal = system: ACHN renal
HOP-62 NSCLC = system: HOP-62 NSCLC
HCC-2998 colon = system: HCC-2998 colon
UO-31 renal = system: UO-31 renal
SF-268 CNS = system: SF-268 CNS
CAKI-1 renal = system: CAKI-1 renal
A498 renal = system: A498 renal
SK-OV-3 ovarian = system: SK-OV-3 ovarian
HT29 colon = system: HT29 colon

SMILES	TGI (NCI-H522 lung)	TGI (ACHN renal)	TGI (HOP-62 NSCLC)	TGI (HCC-2998 colon)	TGI (UO-31 renal)	TGI (SF-268 CNS)	TGI (CAKI-1 renal)	TGI (A498 renal)	TGI (SK-OV-3 ovarian)	TGI (HT29 colon)	GI50 (NCI-H522 lung)	GI50 (HOP-62 NSCLC)	GI50 (HT29 colon)	GI50 (HCC-2998 colon)	GI50 (UO-31 renal)	GI50 (SF-268 CNS)	GI50 (CAKI-1 renal)	GI50 (A498 renal)	GI50 (SK-OV-3 ovarian)	GI50 (ACHN renal)
COC(=O)NN(C(=O)OC)c1c(-c2ccccc2)nc(SC)n1N	> 100 µM	> 100 µM	> 100 µM	> 100 µM	> 100 µM	> 100 µM	> 100 µM	> 100 µM												
O=C(NC(Cc1c[nH]c2ccccc12)C(=O)O)/C(=C/c1ccccc1O)NC(=O)c1ccccc1 (stereo not drawn)	> 100 µM	33.3 µM		> 100 µM	18.7 µM	45.6 µM	36.9 µM	> 100 µM	56.7 µM	> 100 µM										
COc1ccc(CC(CO)NC(=O)OCc2ccccc2)cc1Oc1ccc(CC(CO)NC(=O)OCc2ccccc2)cc1 (stereo not drawn)	18.4 µM		31.8 µM	93.6 µM	31.4 µM	29.4 µM	44.5 µM	34.9 µM	28.8 µM	23.6 µM										
Nn1c(CCCCCCCCc2nnc(COc3c(O)ccc4ccccc34)n2N)nnc1COc1c(O)ccc2ccccc12	> 100 µM	> 100 µM		> 100 µM	> 100 µM	> 100 µM	> 100 µM	> 100 µM	> 100 µM	> 100 µM										
Cc1cc(C)c2c(=O)n(CN3CC4Nc5ccccc5C4C3)sc2n1 (stereo not drawn)	14.2 µM	33.8 µM	> 100 µM		32.5 µM	54.1 µM	57.6 µM	> 100 µM	> 100 µM	46.1 µM										
C=C1C(O)C2(O)OCC34C(CC5C(C)=CC(=O)C(O)C5(C)C23)OC(=O)C(OC(=O)C/C=C(\C)CCCCC)C14 (stereo not drawn)		0.00856 µM and 0.0518 µM		0.00222 µM and 0.019 µM	0.269 µM and 1.21 µM and 0.22 µM			0.00941 µM and 0.057 µM and 0.0255 µM			< 0.001 µM	< 0.001 µM	< 0.001 µM	< 0.001 µM	0.0483 µM and 0.258 µM	< 0.001 µM	0.0274 µM and 0.0875 µM	0.00249 µM and 0.0223 µM		
CC(=O)N/N=C1/NN(C(C)=O)C2(S1)C(=O)Nc1ccc(Br)cc12 (stereo not drawn)	> 100 µM	> 100 µM	> 100 µM	> 100 µM	> 100 µM	> 100 µM	> 100 µM	> 100 µM		> 100 µM										
Cc1ccc(S(=O)(=O)Oc2cc(N)c3c(n2)CCC3)cc1		> 100 µM	> 100 µM	> 100 µM	> 100 µM	> 100 µM	> 100 µM	> 100 µM	> 100 µM	> 100 µM										
CCC1=CCC23C(=O)C=CC(=O)C2(C1)C(=O)c1cccc(OC)c1C3=O (stereo not drawn)	> 100 µM	27.4 µM	42.9 µM		22.7 µM	36.2 µM	26.1 µM			55.8 µM										
N#Cc1nc(-c2cc([N+](=O)[O-])cc([N+](=O)[O-])c2)oc1N	> 10 µM	> 10 µM	> 10 µM	> 10 µM	> 10 µM	> 10 µM	> 10 µM		> 10 µM	> 10 µM										
Cc1cc2c(C)cc(=O)[nH]c2cc1N		> 100 µM	> 100 µM	> 100 µM	> 100 µM		> 100 µM	> 100 µM		> 100 µM										
CC(C)=C[C@@H]1C[C@H](n2cc(C)c(=O)[nH]c2=O)ON1CCO	> 100 µM	> 100 µM	> 100 µM		> 100 µM	> 100 µM	> 100 µM	> 100 µM	> 100 µM	> 100 µM										
CC(C)(C)C1=Cc2cc3cc(C(C)(C)C)[nH]c(=O)c3cc2S(=O)(=O)N1	32.3 µM	89.3 µM	63 µM		35.8 µM	95.1 µM	38.5 µM	> 100 µM	> 100 µM	41.4 µM										
COc1ccc(Nc2nc3ccc(C(F)(F)F)cc3nc2C(=O)O)cc1OC	84.6 µM	> 100 µM	75.4 µM	43.7 µM	43.7 µM	> 100 µM	> 100 µM	86.6 µM		> 100 µM										
C/C(=N/NC(N)=S)c1ccc2ccccc2c1	41 µM	> 100 µM	> 100 µM	34.9 µM		> 100 µM		> 100 µM	51.6 µM	72.4 µM										
Nc1c2ccccc2nc2c1ccc1ncccc12	38.3 µM	41 µM		39.1 µM	40.2 µM		92.1 µM		> 100 µM	> 100 µM										
O=C1CCSSCCC(=O)NCCN1	> 100 µM	> 100 µM	> 100 µM		> 100 µM	> 100 µM	> 100 µM	> 100 µM	> 100 µM	> 100 µM										
O=C1NCCCc2nonc21		> 100 µM	> 100 µM	> 100 µM	> 100 µM	> 100 µM	> 100 µM		> 100 µM	> 100 µM										

SMILES	TGI (NCI-H522 lung)	TGI (ACHN renal)	TGI (HOP-62 NSCLC)	TGI (HCC-2998 colon)	TGI (UO-31 renal)	TGI (SF-268 CNS)	TGI (CAKI-1 renal)	TGI (A498 renal)	TGI (SK-OV-3 ovarian)	TGI (HT29 colon)	GI50 (NCI-H522 lung)	GI50 (HOP-62 NSCLC)	GI50 (HT29 colon)	GI50 (HCC-2998 colon)	GI50 (UO-31 renal)	GI50 (SF-268 CNS)	GI50 (CAKI-1 renal)	GI50 (A498 renal)	GI50 (SK-OV-3 ovarian)	GI50 (ACHN renal)
CC(C)(C)N=c1n(C(C)(C)C)oc(=O)n1C(C)(C)C		> 100 µM	> 100 µM	> 100 µM	> 100 µM		> 100 µM	> 100 µM	> 100 µM	> 100 µM										
CCOC(=O)C1=C(C(C)=O)CSC(c2ccccc2)=N1	> 100 µM			> 100 µM	> 100 µM	> 100 µM	> 100 µM	> 100 µM	> 100 µM	> 100 µM										
CCC[C@H]1C(=O)N=C(N)N1C(=O)OCc1ccccc1	> 100 µM	> 100 µM	> 100 µM	> 100 µM	> 100 µM	> 100 µM	> 100 µM	> 100 µM		> 100 µM										
COc1cc(/C=C/C(=O)O)ccc1C(=O)O/C=C/c1ccccc1	> 100 µM		> 100 µM		> 100 µM	> 100 µM		> 100 µM	> 100 µM	> 100 µM										
CCOP(=O)(OCC)C1C(CO)OC(n2ccc(=O)[nH]c2=O)C1O (stereo not drawn)	> 100 µM	> 100 µM	> 100 µM	> 100 µM	> 100 µM	> 100 µM	> 100 µM	> 100 µM		> 100 µM										
CC(=O)OC(C)c1cc2c(s1)C(=O)c1sccc1C2=O (stereo not drawn)	3.34 µM		2.65 µM	3.54 µM	3.28 µM	4.09 µM	8.23 µM	4.59 µM	9.73 µM	6.18 µM										
Cc1cc(-c2nc3c(O)cccc3s2)ccc1N	39.9 µM	43.4 µM	88.8 µM	> 100 µM	36.6 µM	75.6 µM	56.1 µM		> 100 µM	53.3 µM										
Oc1ccc(-c2nnc3sc(-c4ccc(F)cc4)nn23)cc1	> 100 µM	> 100 µM		> 100 µM	> 100 µM	62.6 µM	> 100 µM		> 100 µM	> 100 µM	62 µM		> 100 µM	> 100 µM	> 100 µM	23 µM	48.8 µM		34.9 µM	24.7 µM
CC(C)(C)NC(=O)[C@H]1CC[C@H]2[C@@H]3CC=C4NC(=O)CC[C@]4(C)[C@H]3CC[C@]12C	> 100 µM	> 100 µM	> 100 µM	> 100 µM	> 100 µM	> 100 µM		> 100 µM	> 100 µM	> 100 µM										
COc1cc(OCc2ccc3oc(=O)c(-c4ccccc4)nc3c2)cc(OC)c1OC	> 100 µM	> 100 µM	> 100 µM	> 100 µM	> 100 µM	> 100 µM		> 100 µM	> 100 µM	> 100 µM										
O=C(O)C1CC(c2ccc(F)cc2)=Nc2ccc(F)cc2S1 (stereo not drawn)	> 100 µM	> 100 µM		> 100 µM	> 100 µM	> 100 µM	> 100 µM	> 100 µM	> 100 µM	> 100 µM										
CCN(CC)CCNc1ccc2nnn3c4ccc(OC)cc4c(=O)c1c23	19.6 µM	21.7 µM	23.8 µM		22.2 µM	20.6 µM	27.6 µM	27 µM	34.6 µM	15.9 µM										
O=C(Nc1cccc2cnccc12)c1cc2c(cc1Cl)Sc1nccn1S2(=O)=O	33.2 µM	77.9 µM	39.7 µM	29.9 µM	55.6 µM	42.2 µM	91.5 µM		86 µM	48.3 µM										
CCSC1=CC(=O)c2nc3ccccc3c3ccnc1c23	3.78 µM	> 44.7 µM	> 51.3 µM	25 µM	19 µM	> 22 µM	9.12 µM		> 100 µM	16.9 µM										
CC1(C)O[C@@H]2COC(=O)[C@@H]2O1	> 100 µM	> 100 µM		> 100 µM	> 100 µM	> 100 µM	> 100 µM	> 100 µM	> 100 µM	> 100 µM										
O=C(CN1CCCCC1)CC(O)(C(F)(F)F)C(F)(F)F	> 100 µM	> 100 µM		> 100 µM	> 100 µM		> 100 µM	> 100 µM	> 100 µM	> 100 µM										
COCOc1ccc(OC)cc1			> 100 µM	> 100 µM	> 100 µM	> 100 µM	> 100 µM	> 100 µM	> 100 µM	> 100 µM										
CCN(CC)CCOC(NC(C)=O)(c1ccccc1)c1ccccc1		> 100 µM	> 100 µM	> 100 µM	> 100 µM	> 100 µM		> 100 µM	> 100 µM	> 100 µM										
